Data set [1] relates to mCRPC patients. The settings on record: cited from earlier work.
The conditions of data set [2]: cited from earlier work.
The test system of data set [3] is CWR-22Rv1 dominant-positive mutant HIF-1α cells. Briefly: In vivo growth of CWR-22Rv1 xenografts expressing dominant-positive mutant HIF-1α. Further details: species or system human. The settings on record: daily oral 10 mg/kg/d. The text has this:
Prostate Cancer Models. The source, history, and characteristics of the human prostate cancer cell lines and PDXs used, as well as cell culture conditions for their in vitro maintenance and the in vivo protocol for xenograft growth in triple immune-deficient NSG (i.e. NOD.Cg-PrkdcScidIl2rgtmlWji/Szj), adult (>8 week old) male mice obtained from the Sidney Kimmel Comprehensive Cancer Center (SKCCC) Animal Core Facility are described previously (Isaacs 2013; Brennen et al. JCI Insight. 2021, 6(8):e146827; Zhu et al. Oncogene 2020, 39(45): 6935-6949). […] In vitro growth curves were determined as described (Isaacs 2013). In vivo growth response to oral daily TasQ (10 mg/kg/d) of TRAMP-C2 mouse prostate cancers was evaluated in C57BL/6J syngeneic wild type vs. NOX-2 vs. iNOS null male mice obtained from Jackson Laboratory (Bar Harbor, ME). Growth response to oral daily TasQ (10 mg/kg/d) of TRAMP-C2 and B6CaP mouse prostate cancers was also evaluated in S100A9 null C57BL′6J male mice obtained from Dmitry Gabrilovich (Wistar Institute). […] In vitro growth curves were determined as described (Isaacs 2013). Growth response to daily oral TasQ vs. ESATA-20 (both at 10 mg/kg/d) of Myc-CaP-CR mouse prostate cancer was evaluated in syngeneic FVB/NJ castrate male mice from Jackson Laboratory. […]

Data set [4] addresses T1, Human Aryl Hydrocarbon Receptor (AHR) (Homo sapiens, UniProt P35869).
T1 construct: purchased Indigo Biosciences IB06001
T1 sequence (P35869 11-848): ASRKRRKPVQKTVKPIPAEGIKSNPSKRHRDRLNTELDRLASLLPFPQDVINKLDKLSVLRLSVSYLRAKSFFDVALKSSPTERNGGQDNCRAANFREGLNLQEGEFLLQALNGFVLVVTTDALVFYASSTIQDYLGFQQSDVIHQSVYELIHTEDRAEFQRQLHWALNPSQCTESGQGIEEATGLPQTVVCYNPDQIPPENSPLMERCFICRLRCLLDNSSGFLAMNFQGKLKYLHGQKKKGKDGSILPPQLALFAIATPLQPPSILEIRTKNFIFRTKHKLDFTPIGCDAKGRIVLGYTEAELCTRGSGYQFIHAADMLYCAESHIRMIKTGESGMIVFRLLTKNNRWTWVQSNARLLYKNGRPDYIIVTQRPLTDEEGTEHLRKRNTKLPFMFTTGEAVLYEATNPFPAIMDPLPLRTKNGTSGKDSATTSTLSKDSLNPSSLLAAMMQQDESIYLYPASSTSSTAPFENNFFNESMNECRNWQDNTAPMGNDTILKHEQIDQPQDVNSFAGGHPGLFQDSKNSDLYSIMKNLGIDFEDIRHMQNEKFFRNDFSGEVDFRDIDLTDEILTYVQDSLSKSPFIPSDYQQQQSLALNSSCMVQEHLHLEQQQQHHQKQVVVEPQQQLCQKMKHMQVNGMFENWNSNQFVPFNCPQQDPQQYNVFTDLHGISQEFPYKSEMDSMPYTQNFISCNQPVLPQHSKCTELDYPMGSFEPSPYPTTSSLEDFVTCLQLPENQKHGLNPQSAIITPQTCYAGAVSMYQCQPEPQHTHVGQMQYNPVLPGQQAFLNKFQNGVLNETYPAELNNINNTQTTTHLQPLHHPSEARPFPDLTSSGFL
Briefly: Human AHR reporter assay (cell-based  luciferase reporter gene assay). Background: In a reporter assay the amount or activity of a reporter protein is the signal.
Description: AHR Agonist Assay. Human Aryl Hydrocarbon Receptor (AHR) Reporter Assay System [Indigo Biosciences (State College, Pa) Cat #IB06001] was used as per the manufacturer's protocol.
Thus, a series of quinoline-3-carboxamide analogs were synthesized focusing upon adduct changes at the aniline-N. These analogs were synthesized as described in Example 1, and were initially screened for their AHR agonist activity using the in vitro human cell-based ARE-driven luciferase reporter gene assay (Table 3).

These results are taken from US20250059139A1, “COMPOUNDS FOR TREATMENT OF CANCER” (THE JOHNS HOPKINS UNIVERSITY, priority 2021, published 2025).

Where two headings read alike, the source gives them in different places. A value given as a limit tells only on which side of the number the result lay.

As a reminder, the Cmax is the peak of the concentration-time curve. For `COc1cccc2c1c(O)c(C(=O)N(C)c1ccc(C(F)(F)F)cc1)c(=O)n2C` [TasQ, Tasquinimod], in data set [1] (Phase III, oral 1 mg/day, mCRPC patients on ADT), the “reduction of the risk of radiographic progression or death vs. placebo” value is recorded as 36%. Further, the overall survival entry in data set [1] (Phase III, oral 1 mg/day) was “not enhanced”. Moreover, the Cmax in data set [1] (human, in vivo, 1 mg) was approximately 500 nM. Also, the “maximum tolerated dose (MTD) in humans” value in data set [1] (human, in vivo) is 1 mg. In addition, the blood concentrations maintained in data set [2] (daily oral 10 mg/kg/d) is more than 1000 nM. In addition, the serum nadir in data set [2] (oral 5 mg/kg/d, at 24 hrs) was 1.08 ± 0.21 µM. In addition, the “growth inhibition of dominant-positive mutant HIF-1α tumors” value in data set [3] is on record as less than 25%.

As for `COc1cccc2c1c(O)c(C(=O)N(c1ccc(C(F)(F)F)cc1)C1CCCCC1)c(=O)n2C` [ESATA-20], the EC50 in data set [4] (luciferase reporter gene assay, read-out: AHR agonist EC50) worked out at 10000 nM; in data set [4] (n = 4 independent assays/analog, read-out: AHR Agonist Response [EC50] (nM +/−SD)), 10200 nM.
